Experimental data: patent US4818770A, “Prevention of a plant disease by specific inhibition of fungal polyamine biosynthesis” (priority 1986, dated 1989)

System: U. phaseoli
Assay: Bean rust severity after DFMO and polyamines alone or combined
Format: in vivo, Uromyces phaseoli
Conditions: for Lesions per cm^2 / Lesions per leaf / Lesions per leaf, percent of control: postinoculation

Compound | Lesions per cm^2 (polyamine alone 0.01 mM) [per cm^2] | Lesions per leaf (polyamine alone 0.01 mM) [per leaf] | Lesions per leaf, percent of control (polyamine alone 0.01 mM) | Lesions per cm^2 (polyamine alone 0.1 mM) [per cm^2] | Lesions per leaf (polyamine alone 0.1 mM) [per leaf] | Lesions per leaf, percent of control (polyamine alone 0.1 mM) | Lesions per cm^2 (polyamine alone 1.0 mM) [per cm^2] | Lesions per leaf (polyamine alone 1.0 mM) [per leaf] | Lesions per leaf, percent of control (polyamine alone 1.0 mM) | reduction of number of lesions (1 mM Put alone)
NCCCCNCCCN [Spd, spermidine] | 56 ± 5 | 3209 ± 360 | 78% of control | 58 ± 6 | 3416 ± 457 | 83% of control | 50 ± 10 | 3926 ± 358 | 96% of control | 
NCCCCN [Put, putrescine] | 57 ± 2 | 4013 ± 264 | 98% of control | 54 ± 5 | 3189 ± 478 | 78% of control | 44 ± 9 | 2698 ± 260 | 66% of control | about one-third
